# Results taken from ChEMBL document CHEMBL6078675, “Discovery of Ureido-Containing Alteropeptilides and Intramolecular Cyclized Alteramides in Pseudoalteromonas flavipulchra S16 by Promoter Engineering of Cryptic Biosynthetic Gene Clusters” (J Nat Prod, 2024).
# The source made the active and inactive calls. The calls are words filed in the database; no cut-off is given here. Numbered stars: 1 amine (or outer) side, 2 acyl side, 3 side chain; on linkers, the order of the positions; unused ones are H or OH. Peptide text beside a SMILES is read from it. Trp(6-Br) = N[C@@H](Cc1c[nH]c2cc(Br)ccc12)C(=O)O; CO = O=C([*:1])[*:2]
# What was measured:
# HeLa = experiment: Cytotoxicity against human HeLa cells assessed as inhibition of cell proliferation at 20 uM incubated for 24 hrs by CCK8 assay; format: functional, cell-based
# A673 = experiment: Cytotoxicity against human A673 cells assessed as inhibition of cell proliferation at 20 uM incubated for 24 hrs by CCK8 assay; format: functional, cell-based
# A-375 = experiment: Cytotoxicity against human A-375 cells assessed as inhibition of cell proliferation at 20 uM incubated for 24 hrs by CCK8 assay; format: functional, cell-based
# A549 = experiment: Cytotoxicity against human A549 cells assessed as inhibition of cell proliferation at 20 uM incubated for 24 hrs by CCK8 assay; format: functional, cell-based
# L02 = experiment: Cytotoxicity against human L02 cells assessed as inhibition of cell proliferation at 20 uM incubated for 24 hrs by CCK8 assay; format: toxicity, cell-based; conditions: l02, 24 h
# CAL-62 = experiment: Cytotoxicity against human CAL-62 cells assessed as inhibition of cell proliferation at 20 uM incubated for 24 hrs by CCK8 assay; format: functional, cell-based
# RAW264.7 [1] = experiment: Cytotoxicity against mouse RAW264.7 cells assessed as inhibition of cell proliferation at 20 uM incubated for 24 hrs by CCK8 assay; format: functional, cell-based
# K562 = experiment: Cytotoxicity against human K562 cells assessed as inhibition of cell proliferation at 20 uM incubated for 24 hrs by CCK8 assay; format: functional, cell-based
# MCF7 = experiment: Cytotoxicity against human MCF7 cells assessed as inhibition of cell proliferation at 20 uM incubated for 24 hrs by CCK8 assay; format: functional, cell-based
# HCT-116 = experiment: Cytotoxicity against human HCT-116 cells assessed as inhibition of cell proliferation at 20 uM incubated for 24 hrs by CCK8 assay; format: functional, cell-based
# RAW264.7 [2] = experiment: Anti-inflammatory activity against mouse RAW264.7 cells at 20 uM pretreated for 30 mins followed by LPS treatment for 24 hrs by Griess assay; format: functional, cell-based; conditions: time 24.5 hrs
# 5637 = experiment: Cytotoxicity against human 5637 cells assessed as inhibition of cell proliferation at 20 uM incubated for 24 hrs by CCK8 assay; format: functional, cell-based
# PaTu 8988t = experiment: Cytotoxicity against human PaTu 8988t cells assessed as inhibition of cell proliferation at 20 uM incubated for 24 hrs by CCK8 assay; format: functional, cell-based
# Escherichia coli = experiment: Antibacterial activity against Escherichia coli CGMCC 44102 at 1 mM at 20 uM incubated for 16 hrs by disk diffusion method; format: functional, organism-based
# 786-0 = experiment: Cytotoxicity against human 786-0 cells assessed as inhibition of cell proliferation at 20 uM incubated for 24 hrs by CCK8 assay; format: functional, cell-based
# HOS = experiment: Cytotoxicity against human HOS cells assessed as inhibition of cell proliferation at 20 uM incubated for 24 hrs by CCK8 assay; format: functional, cell-based
# HepG2 = experiment: Cytotoxicity against human HepG2 cells assessed as inhibition of cell proliferation at 20 uM incubated for 24 hrs by CCK8 assay; format: functional, cell-based
# GBC-SD = experiment: Cytotoxicity against human GBC-SD cells assessed as inhibition of cell proliferation at 20 uM incubated for 24 hrs by CCK8 assay; format: functional, cell-based
# Bacillus subtilis = experiment: Antibacterial activity against Bacillus subtilis ATCC 6633 at 1 mM at 20 uM incubated for 16 hrs by disk diffusion method; format: functional, organism-based
# Staphylococcus aureus = experiment: Antibacterial activity against Staphylococcus aureus ATCC 29213 at 1 mM at 20 uM incubated for 16 hrs by disk diffusion method; format: functional, organism-based
# SF-126 = experiment: Cytotoxicity against human SF-126 cells assessed as inhibition of cell proliferation at 20 uM incubated for 24 hrs by CCK8 assay; format: functional, cell-based
# MKN-45 = experiment: Cytotoxicity against human MKN-45 cells assessed as inhibition of cell proliferation at 20 uM incubated for 24 hrs by CCK8 assay; format: functional, cell-based
# TE-1 = experiment: Cytotoxicity against human TE-1 cells assessed as inhibition of cell proliferation at 20 uM incubated for 24 hrs by CCK8 assay; format: functional, cell-based
# DU-145 = experiment: Cytotoxicity against human DU-145 cells assessed as inhibition of cell proliferation at 20 uM incubated for 24 hrs by CCK8 assay; format: functional, cell-based
Structure (SMILES),Activity (HeLa),Activity (A673),Activity (A-375),Activity (A549),Activity (L02),Activity (CAL-62),Activity (RAW264.7 [1]),Activity (K562),Activity (MCF7),Activity (HCT-116),Activity (RAW264.7 [2]),Activity 5637,Activity (PaTu 8988t),Activity (Escherichia coli),Activity (786-0),Activity (HOS),Activity (HepG2),Activity (GBC-SD),Activity (Bacillus subtilis),Activity (Staphylococcus aureus),also measured
COC(=O)[C@@H](NC(=O)[C@H](Cc1c[nH]c2ccccc12)NC(=O)[C@H](Cc1c[nH]c2ccccc12)NC(=O)[C@@H](NC(=O)N[C@@H](Cc1c[nH]c2ccccc12)C(=O)O)[C@@H](C)O)C(C)C ({Trp-CO}-TWWV-OMe),inactive,inactive,inactive,inactive,Non-toxic,inactive,inactive,inactive,inactive,inactive,inactive,inactive,inactive,inactive,inactive,inactive,inactive,inactive,inactive,inactive,Activity (SF-126): inactive; Activity (MKN-45): inactive; Activity (TE-1): inactive; Activity (DU-145): inactive
COC(=O)[C@@H](NC(=O)[C@H](Cc1c[nH]c2ccccc12)NC(=O)[C@H](Cc1c[nH]c2ccccc12)NC(=O)[C@@H](NC(=O)N[C@@H](Cc1c[nH]c2cc(Br)ccc12)C(=O)O)[C@@H](C)O)C(C)C ({Trp(6-Br)-CO}-TWWV-OMe),inactive,inactive,inactive,inactive,Non-toxic,inactive,inactive,inactive,inactive,inactive,inactive,inactive,inactive,inactive,inactive,inactive,inactive,inactive,inactive,inactive,Activity (SF-126): inactive; Activity (MKN-45): inactive; Activity (TE-1): inactive; Activity (DU-145): inactive
